Assay results: the kinase profiling compilation of Christmann-Franck et al. (2016)

How the values were obtained:
Assay in all cases: radiometric filter-binding kinase assay
[1] = test system: AKT2 (human), P31751 [S474D]
BRSK2 (human) = BRSK2 (human) (UniProt Q8IWQ3)
CAMKK2 (human) = CAMKK2 (human) (UniProt Q96RR4)
CLK2 (human) = CLK2 (human) (UniProt P49760)
CSK (human) = CSK (human) (UniProt P41240)
DAPK1 (human) = DAPK1 (human) (UniProt P53355)
EPHA4 (human) = EPHA4 (human) (UniProt P54764)
EPHB1 (human) = EPHB1 (human) (UniProt P54762)
EPHB3 (human) = EPHB3 (human) (UniProt P54753)
EPHB4 (human) = EPHB4 (human) (UniProt P54760)
GSK3B (human) = GSK3B (human) (UniProt P49841)
HIPK1 (human) = HIPK1 (human) (UniProt Q86Z02)
Sequence of HIPK1 (human) (Q86Z02 whole entry, looked up): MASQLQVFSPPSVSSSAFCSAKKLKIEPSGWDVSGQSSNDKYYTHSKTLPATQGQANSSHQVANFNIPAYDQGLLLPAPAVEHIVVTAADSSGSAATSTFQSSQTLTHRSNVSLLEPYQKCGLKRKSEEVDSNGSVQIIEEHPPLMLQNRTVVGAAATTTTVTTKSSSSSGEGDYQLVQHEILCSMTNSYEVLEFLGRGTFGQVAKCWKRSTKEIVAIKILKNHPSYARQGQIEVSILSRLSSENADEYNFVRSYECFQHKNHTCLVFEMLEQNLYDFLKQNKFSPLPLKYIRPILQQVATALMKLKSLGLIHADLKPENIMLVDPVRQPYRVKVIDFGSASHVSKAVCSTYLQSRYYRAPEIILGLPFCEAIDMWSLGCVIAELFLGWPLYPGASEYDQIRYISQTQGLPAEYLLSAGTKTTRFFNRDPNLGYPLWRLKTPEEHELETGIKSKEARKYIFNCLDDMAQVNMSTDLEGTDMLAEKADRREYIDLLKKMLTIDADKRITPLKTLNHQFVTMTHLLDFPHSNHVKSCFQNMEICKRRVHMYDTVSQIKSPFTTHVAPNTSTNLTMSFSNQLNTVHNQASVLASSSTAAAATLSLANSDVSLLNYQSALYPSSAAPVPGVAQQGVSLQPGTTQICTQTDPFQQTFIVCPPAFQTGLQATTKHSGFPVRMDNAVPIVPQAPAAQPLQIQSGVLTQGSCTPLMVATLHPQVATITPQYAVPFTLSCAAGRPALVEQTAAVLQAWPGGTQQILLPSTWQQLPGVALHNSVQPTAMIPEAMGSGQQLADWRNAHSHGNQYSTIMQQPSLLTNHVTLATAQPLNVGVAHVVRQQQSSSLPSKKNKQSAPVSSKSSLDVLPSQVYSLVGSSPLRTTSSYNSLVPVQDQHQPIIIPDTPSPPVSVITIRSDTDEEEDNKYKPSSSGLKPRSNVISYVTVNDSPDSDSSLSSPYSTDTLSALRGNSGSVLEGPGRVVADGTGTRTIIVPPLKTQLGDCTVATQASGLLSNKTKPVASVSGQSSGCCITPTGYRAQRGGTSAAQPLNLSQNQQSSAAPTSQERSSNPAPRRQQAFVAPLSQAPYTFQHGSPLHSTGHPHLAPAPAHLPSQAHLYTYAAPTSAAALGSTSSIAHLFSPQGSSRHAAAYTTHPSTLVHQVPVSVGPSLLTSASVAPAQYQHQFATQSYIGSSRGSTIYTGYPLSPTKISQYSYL

HIPK2 (human) = HIPK2 (human) (UniProt Q9H2X6)
HIPK3 (human) = HIPK3 (human) (UniProt Q9H422)
Sequence of HIPK3 (human) (Q9H422 whole entry, looked up): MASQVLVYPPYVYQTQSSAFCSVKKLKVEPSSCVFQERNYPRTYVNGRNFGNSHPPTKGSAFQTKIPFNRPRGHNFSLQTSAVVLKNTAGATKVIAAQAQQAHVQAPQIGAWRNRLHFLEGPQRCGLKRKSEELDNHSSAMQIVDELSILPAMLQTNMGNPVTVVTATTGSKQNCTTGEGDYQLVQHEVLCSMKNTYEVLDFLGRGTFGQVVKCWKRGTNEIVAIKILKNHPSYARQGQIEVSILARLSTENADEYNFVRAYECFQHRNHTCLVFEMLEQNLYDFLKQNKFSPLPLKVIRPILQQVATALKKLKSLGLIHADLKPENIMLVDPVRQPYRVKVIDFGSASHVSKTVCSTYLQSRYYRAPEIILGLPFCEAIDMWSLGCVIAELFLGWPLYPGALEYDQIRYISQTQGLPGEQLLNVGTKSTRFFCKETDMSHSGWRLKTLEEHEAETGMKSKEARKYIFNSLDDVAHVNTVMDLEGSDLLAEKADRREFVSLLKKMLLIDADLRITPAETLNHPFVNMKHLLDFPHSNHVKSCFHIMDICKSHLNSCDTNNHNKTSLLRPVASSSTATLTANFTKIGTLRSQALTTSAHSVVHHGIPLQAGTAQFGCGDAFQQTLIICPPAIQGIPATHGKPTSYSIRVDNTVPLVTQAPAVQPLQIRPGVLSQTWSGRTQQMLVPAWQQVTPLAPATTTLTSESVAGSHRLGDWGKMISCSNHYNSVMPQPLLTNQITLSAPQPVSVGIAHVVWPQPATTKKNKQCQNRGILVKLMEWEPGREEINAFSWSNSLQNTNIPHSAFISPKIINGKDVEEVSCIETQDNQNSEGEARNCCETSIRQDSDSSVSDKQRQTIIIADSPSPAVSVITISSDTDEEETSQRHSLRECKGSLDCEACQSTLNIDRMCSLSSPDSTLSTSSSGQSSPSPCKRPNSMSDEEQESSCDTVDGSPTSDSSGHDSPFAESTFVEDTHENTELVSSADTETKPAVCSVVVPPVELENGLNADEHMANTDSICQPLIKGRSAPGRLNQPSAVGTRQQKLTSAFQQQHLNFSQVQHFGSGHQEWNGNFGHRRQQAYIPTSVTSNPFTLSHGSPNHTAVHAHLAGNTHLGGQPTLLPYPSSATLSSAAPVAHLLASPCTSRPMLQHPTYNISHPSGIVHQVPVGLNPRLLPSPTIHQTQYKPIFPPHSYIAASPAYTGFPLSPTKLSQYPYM

IGF1R (human) = IGF1R (human) (UniProt P08069)
INSR (human) = INSR (human) (UniProt P06213)
Sequence of INSR (human) (P06213 whole entry, looked up): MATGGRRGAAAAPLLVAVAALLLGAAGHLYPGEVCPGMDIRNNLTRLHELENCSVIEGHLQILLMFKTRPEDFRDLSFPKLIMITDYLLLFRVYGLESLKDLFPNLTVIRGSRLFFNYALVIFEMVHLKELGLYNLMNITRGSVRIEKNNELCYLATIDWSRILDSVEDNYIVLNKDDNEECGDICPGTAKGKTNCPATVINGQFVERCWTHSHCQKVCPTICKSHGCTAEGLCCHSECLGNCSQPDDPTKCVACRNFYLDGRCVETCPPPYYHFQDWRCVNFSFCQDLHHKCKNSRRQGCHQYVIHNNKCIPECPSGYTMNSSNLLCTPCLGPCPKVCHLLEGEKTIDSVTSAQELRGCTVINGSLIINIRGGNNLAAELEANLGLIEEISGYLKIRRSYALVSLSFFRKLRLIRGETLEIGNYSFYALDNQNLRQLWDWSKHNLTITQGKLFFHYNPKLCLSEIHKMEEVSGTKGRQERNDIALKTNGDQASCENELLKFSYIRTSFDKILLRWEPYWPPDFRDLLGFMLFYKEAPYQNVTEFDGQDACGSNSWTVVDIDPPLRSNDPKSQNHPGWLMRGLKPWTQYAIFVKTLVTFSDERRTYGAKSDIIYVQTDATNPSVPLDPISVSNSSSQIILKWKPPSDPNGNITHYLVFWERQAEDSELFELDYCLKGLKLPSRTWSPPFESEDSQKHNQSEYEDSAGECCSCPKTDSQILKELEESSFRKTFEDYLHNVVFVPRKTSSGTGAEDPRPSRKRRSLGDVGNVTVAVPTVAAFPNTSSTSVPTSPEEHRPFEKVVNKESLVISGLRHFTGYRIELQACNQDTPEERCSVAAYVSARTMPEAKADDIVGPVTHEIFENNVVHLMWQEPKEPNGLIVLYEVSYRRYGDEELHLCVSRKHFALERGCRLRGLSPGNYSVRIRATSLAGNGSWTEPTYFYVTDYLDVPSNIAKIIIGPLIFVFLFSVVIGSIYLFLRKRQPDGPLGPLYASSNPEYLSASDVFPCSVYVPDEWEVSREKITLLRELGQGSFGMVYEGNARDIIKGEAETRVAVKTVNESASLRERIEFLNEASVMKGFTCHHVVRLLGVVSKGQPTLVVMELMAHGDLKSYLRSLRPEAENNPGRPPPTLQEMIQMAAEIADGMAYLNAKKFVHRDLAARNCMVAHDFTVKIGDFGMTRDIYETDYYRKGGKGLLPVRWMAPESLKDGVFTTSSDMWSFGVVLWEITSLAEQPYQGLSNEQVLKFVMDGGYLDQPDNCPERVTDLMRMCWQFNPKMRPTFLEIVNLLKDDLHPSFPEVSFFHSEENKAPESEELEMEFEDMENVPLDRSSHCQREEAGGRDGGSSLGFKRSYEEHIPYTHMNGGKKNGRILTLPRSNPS

LCK (mouse) = settings: accession and sequence are those of the human protein
MAP3K1 (human) = MAP3K1 (human) (UniProt Q13233)
MAP3K5 (human) = MAP3K5 (human) (UniProt Q99683)
MAP3K7 TAB1 (human) = MAP3K7 TAB1 (human) (UniProt Q15750+O43318)
MAP3K9 (human) = MAP3K9 (human) (UniProt P80192)
MAPK1 (human) = MAPK1 (human) (UniProt P28482)
Sequence of MAPK1 (human) (P28482 whole entry, looked up): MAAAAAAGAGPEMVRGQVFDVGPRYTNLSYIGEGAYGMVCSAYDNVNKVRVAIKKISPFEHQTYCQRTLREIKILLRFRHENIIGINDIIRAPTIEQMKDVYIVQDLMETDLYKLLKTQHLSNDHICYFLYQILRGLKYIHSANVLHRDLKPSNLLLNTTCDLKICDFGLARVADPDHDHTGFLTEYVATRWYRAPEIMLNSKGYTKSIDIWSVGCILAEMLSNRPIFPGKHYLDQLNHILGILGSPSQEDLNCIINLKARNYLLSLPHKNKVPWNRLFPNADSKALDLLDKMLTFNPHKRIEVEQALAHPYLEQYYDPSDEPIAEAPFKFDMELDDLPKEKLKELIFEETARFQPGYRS

MAPK11 (human) = MAPK11 (human) (UniProt Q15759)
MAPK13 (human) = MAPK13 (human) (UniProt O15264)
MARK4 (human) = MARK4 (human) (UniProt Q96L34)
PAK6 (human) = PAK6 (human) (UniProt Q9NQU5)
PAK7 (human) = PAK7 (human) (UniProt Q9P286)
PKN2 (human) = PKN2 (human) (UniProt Q16513)
PLK1 (human) = PLK1 (human) (UniProt P53350)
PRKAA1 or PRKAA2 (rat) = settings: accession and sequence are those of the human protein
PRKCZ (human) = PRKCZ (human) (UniProt Q05513)
ROCK2 (rat) = settings: accession and sequence are those of the human protein
RPS6KA5 KD1 KD2 (human) = RPS6KA5 KD1 KD2 (human) (UniProt O75582)
SRC (human) = SRC (human) (UniProt P12931)
SYK (human) = SYK (human) (UniProt P43405)
YES1 (human) = YES1 (human) (UniProt P07947)

Sequence of CSK (human) (P41240 whole entry, looked up): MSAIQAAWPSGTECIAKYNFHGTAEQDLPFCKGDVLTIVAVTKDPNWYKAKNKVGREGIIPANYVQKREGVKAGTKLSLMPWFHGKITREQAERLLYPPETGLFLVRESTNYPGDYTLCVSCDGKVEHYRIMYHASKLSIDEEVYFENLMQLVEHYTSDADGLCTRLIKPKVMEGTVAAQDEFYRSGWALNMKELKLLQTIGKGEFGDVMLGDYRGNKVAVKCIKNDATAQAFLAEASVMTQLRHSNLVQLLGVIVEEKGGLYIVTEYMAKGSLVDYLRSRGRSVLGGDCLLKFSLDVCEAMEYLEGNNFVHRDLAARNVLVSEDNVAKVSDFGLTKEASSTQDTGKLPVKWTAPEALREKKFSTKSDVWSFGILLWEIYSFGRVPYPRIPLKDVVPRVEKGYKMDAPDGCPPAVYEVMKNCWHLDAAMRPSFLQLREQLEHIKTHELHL
Sequence of AKT2 (human), P31751 [S474D] (P31751 whole entry S474D, looked up): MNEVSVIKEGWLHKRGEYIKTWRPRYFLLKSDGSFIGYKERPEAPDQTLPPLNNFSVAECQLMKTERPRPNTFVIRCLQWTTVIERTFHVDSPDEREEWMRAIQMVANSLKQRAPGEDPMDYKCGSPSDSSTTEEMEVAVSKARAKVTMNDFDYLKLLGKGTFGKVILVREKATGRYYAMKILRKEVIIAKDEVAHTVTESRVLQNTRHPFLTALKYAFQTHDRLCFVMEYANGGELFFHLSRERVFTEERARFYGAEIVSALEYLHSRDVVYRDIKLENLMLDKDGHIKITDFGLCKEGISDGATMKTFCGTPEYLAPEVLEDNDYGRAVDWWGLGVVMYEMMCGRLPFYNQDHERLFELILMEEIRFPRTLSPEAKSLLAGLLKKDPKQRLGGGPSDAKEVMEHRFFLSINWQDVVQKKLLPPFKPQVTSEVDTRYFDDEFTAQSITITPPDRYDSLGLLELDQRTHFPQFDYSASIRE

Question: Which results are given for `O=C(N[C@@H](COc1ccc2[nH]c(=O)[nH]c2c1)c1ccccc1)c1cccn(Cc2ccc(F)c(F)c2)c1=O`?
Answer: residual activity ([1]; compound 0.1 µM): 98%; residual activity ([1]; compound 1.0 µM): 96%; residual activity ([1]; compound 10.0 µM): 77%; residual activity (BRSK2 (human); compound 0.1 µM): 118%; residual activity (BRSK2 (human); compound 1.0 µM): 90%; residual activity (BRSK2 (human); compound 10.0 µM): 79%; residual activity (CAMKK2 (human); compound 1.0 µM): 104%; residual activity (CAMKK2 (human); compound 10.0 µM): 90%; residual activity (CLK2 (human); compound 0.1 µM): 106%; residual activity (CLK2 (human); compound 1.0 µM): 95%; residual activity (CLK2 (human); compound 10.0 µM): 74%; residual activity (CSK (human); compound 0.1 µM): 109%; residual activity (CSK (human); compound 1.0 µM): 98%; residual activity (CSK (human); compound 10.0 µM): 101%; residual activity (DAPK1 (human); compound 0.1 µM): 106%; residual activity (DAPK1 (human); compound 1.0 µM): 113%; residual activity (DAPK1 (human); compound 10.0 µM): 91%; residual activity (EPHA4 (human); compound 0.1 µM): 95%; residual activity (EPHA4 (human); compound 1.0 µM): 113%; residual activity (EPHA4 (human); compound 10.0 µM): 107%; residual activity (EPHB1 (human); compound 0.1 µM): 87%; residual activity (EPHB1 (human); compound 1.0 µM): 88%; residual activity (EPHB1 (human); compound 10.0 µM): 90%; residual activity (EPHB3 (human); compound 0.1 µM): 114%; residual activity (EPHB3 (human); compound 1.0 µM): 119%; residual activity (EPHB3 (human); compound 10.0 µM): 113%; residual activity (EPHB4 (human); compound 1.0 µM): 85%; residual activity (EPHB4 (human); compound 10.0 µM): 87%; residual activity (GSK3B (human); compound 0.1 µM): 97%; residual activity (GSK3B (human); compound 1.0 µM): 96%; residual activity (GSK3B (human); compound 10.0 µM): 64%; residual activity (HIPK1 (human); compound 0.1 µM): 99%; residual activity (HIPK1 (human); compound 1.0 µM): 100%; residual activity (HIPK1 (human); compound 10.0 µM): 86%; residual activity (HIPK2 (human); compound 0.1 µM): 92%; residual activity (HIPK2 (human); compound 1.0 µM): 96%; residual activity (HIPK2 (human); compound 10.0 µM): 90%; residual activity (HIPK3 (human); compound 0.1 µM): 99%; residual activity (HIPK3 (human); compound 1.0 µM): 108%; residual activity (HIPK3 (human); compound 10.0 µM): 91%; residual activity (IGF1R (human); compound 0.1 µM): 105%; residual activity (IGF1R (human); compound 1.0 µM): 105%; residual activity (IGF1R (human); compound 10.0 µM): 103%; residual activity (INSR (human); compound 0.1 µM): 99%; residual activity (INSR (human); compound 1.0 µM): 95%; residual activity (INSR (human); compound 10.0 µM): 93%; residual activity (LCK (mouse); compound 0.1 µM): 109%; residual activity (LCK (mouse); compound 1.0 µM): 101%; residual activity (LCK (mouse); compound 10.0 µM): 91%; residual activity (MAP3K1 (human); compound 0.1 µM): 110%; residual activity (MAP3K1 (human); compound 1.0 µM): 114%; residual activity (MAP3K1 (human); compound 10.0 µM): 112%; residual activity (MAP3K5 (human); compound 0.1 µM): 110%; residual activity (MAP3K5 (human); compound 1.0 µM): 105%; residual activity (MAP3K5 (human); compound 10.0 µM): 92%; residual activity (MAP3K7 TAB1 (human); compound 0.1 µM): 97%; residual activity (MAP3K7 TAB1 (human); compound 1.0 µM): 103%; residual activity (MAP3K7 TAB1 (human); compound 10.0 µM): 54%; residual activity (MAP3K9 (human); compound 0.1 µM): 119%; residual activity (MAP3K9 (human); compound 1.0 µM): 102%; residual activity (MAP3K9 (human); compound 10.0 µM): 50%; residual activity (MAPK1 (human); compound 0.1 µM): 102%; residual activity (MAPK1 (human); compound 1.0 µM): 100%; residual activity (MAPK1 (human); compound 10.0 µM): 101%; residual activity (MAPK11 (human); compound 0.1 µM): 100%; residual activity (MAPK11 (human); compound 1.0 µM): 110%; residual activity (MAPK11 (human); compound 10.0 µM): 115%; residual activity (MAPK13 (human); compound 0.1 µM): 91%; residual activity (MAPK13 (human); compound 1.0 µM): 97%; residual activity (MAPK13 (human); compound 10.0 µM): 94%; residual activity (MARK4 (human); compound 0.1 µM): 150%; residual activity (MARK4 (human); compound 1.0 µM): 143%; residual activity (MARK4 (human); compound 10.0 µM): 83%; residual activity (PAK6 (human); compound 0.1 µM): 102%; residual activity (PAK6 (human); compound 1.0 µM): 102%; residual activity (PAK6 (human); compound 10.0 µM): 89%; residual activity (PAK7 (human); compound 0.1 µM): 104%; residual activity (PAK7 (human); compound 1.0 µM): 92%; residual activity (PAK7 (human); compound 10.0 µM): 64%; residual activity (PKN2 (human); compound 0.1 µM): 108%; residual activity (PKN2 (human); compound 1.0 µM): 113%; residual activity (PKN2 (human); compound 10.0 µM): 103%; residual activity (PLK1 (human); compound 0.1 µM): 118%; residual activity (PLK1 (human); compound 1.0 µM): 107%; residual activity (PLK1 (human); compound 10.0 µM): 121%; residual activity (PRKAA1 or PRKAA2 (rat); compound 0.1 µM): 97%; residual activity (PRKAA1 or PRKAA2 (rat); compound 1.0 µM): 99%; residual activity (PRKAA1 or PRKAA2 (rat); compound 10.0 µM): 99%; residual activity (PRKCZ (human); compound 0.1 µM): 104%; residual activity (PRKCZ (human); compound 1.0 µM): 106%; residual activity (PRKCZ (human); compound 10.0 µM): 88%; residual activity (ROCK2 (rat); compound 0.1 µM): 105%; residual activity (ROCK2 (rat); compound 1.0 µM): 112%; residual activity (ROCK2 (rat); compound 10.0 µM): 108%; residual activity (RPS6KA5 KD1 KD2 (human); compound 0.1 µM): 101%; residual activity (RPS6KA5 KD1 KD2 (human); compound 1.0 µM): 104%; residual activity (RPS6KA5 KD1 KD2 (human); compound 10.0 µM): 106%; residual activity (SRC (human); compound 0.1 µM): 103%; residual activity (SRC (human); compound 1.0 µM): 100%; residual activity (SRC (human); compound 10.0 µM): 75%; residual activity (SYK (human); compound 0.1 µM): 99%; residual activity (SYK (human); compound 1.0 µM): 88%; residual activity (SYK (human); compound 10.0 µM): 82%; residual activity (YES1 (human); compound 0.1 µM): 104%; residual activity (YES1 (human); compound 1.0 µM): 105%; residual activity (YES1 (human); compound 10.0 µM): 95%
